Assay results: PubChem BioAssay (NCI)
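Where inhibition never reached the appropriate level, the endpoint shown equals the highest concentration tested. Otherwise, values were interpolated linearly from a five-concentration, 48-hour dose response in 96-well plates. TGI: total growth inhibition.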

Key:
Assay in all cases: growth of human tumour cells (NCI), 48 h
[1] = test system: TK-10 renal
[2] = test system: SN12C renal
[3] = test system: SK-OV-3 ovarian
[4] = test system: HCC-2998 colon
[5] = test system: OVCAR-8 ovarian
[6] = test system: SF-268 CNS
[7] = test system: OVCAR-3 ovarian
[8] = test system: SK-MEL-28 melanoma
[9] = test system: DLD-1 colon
[10] = test system: U251 CNS
[11] = test system: SNB-75 CNS
[12] = test system: HOP-92 NSCLC
[13] = test system: K-562 leukemia
[14] = test system: UO-31 renal
[15] = test system: NCI-H460 lung
[16] = test system: MALME-3M melanoma
[17] = test system: KM12 colon
[18] = test system: RXF-631 renal
[19] = test system: A498 renal
[20] = test system: SF-539 CNS
[21] = test system: EKVX NSCLC
[22] = test system: OVCAR-5 ovarian
[23] = test system: SK-MEL-2 melanoma
[24] = test system: SW-620 colon
[25] = test system: SNB-78 CNS
[26] = test system: M19-MEL melanoma
[27] = test system: KM20L2 colon
[28] = test system: SNB-19 CNS
[29] = test system: HL-60(TB) leukemia
[30] = test system: SK-MEL-5 melanoma
[31] = test system: RXF 393 renal
[32] = test system: HCT-116 colon
[33] = test system: CCRF-CEM leukemia
[34] = test system: HT29 colon
[35] = test system: SF-295 CNS
[36] = test system: LXFL 529 NSCLC
[37] = test system: XF 498 CNS
[38] = test system: UACC-62 melanoma
[39] = test system: NCI-H522 lung
[40] = test system: CAKI-1 renal
[41] = test system: OVCAR-4 ovarian
[42] = test system: A549 NSCLC
[43] = test system: 786-0 renal
[44] = test system: SR leukemia
[45] = test system: HCT-15 colon
[46] = test system: ACHN renal
[47] = test system: HOP-62 NSCLC
[48] = test system: IGROV1 ovarian
[49] = test system: NCI-H23 lung
[50] = test system: MOLT-4 leukemia
[51] = test system: M14 melanoma
[52] = test system: HOP-18 NSCLC
[53] = test system: RPMI-8226 leukemia
[54] = test system: UACC-257 melanoma
[55] = test system: COLO 205 colon
[56] = test system: DMS 273 small cell lung
[57] = test system: LOX IMVI melanoma
[58] = test system: DMS 114 small cell lung
[59] = test system: NCI-H226 lung

In the case of O=C1C(=O)c2ccccc2C(O)=C1CN(CCCl)CCCl, the TGI [1] is reported as > 100 µM, the TGI [2] is reported as > 100 µM and the TGI [3] is reported as > 100 µM. The TGI [4] was > 100 µM, the TGI [5] was > 100 µM and the TGI [6] was > 100 µM. The TGI [7] was > 100 µM, the TGI [8] was > 100 µM and the TGI [9] was > 100 µM. The TGI [10] was > 100 µM, the TGI [11] was > 100 µM and the TGI [12] was > 100 µM. The TGI [13] was > 100 µM, the TGI [14] was > 100 µM and the TGI [15] was > 100 µM. The TGI [16] was > 100 µM, the TGI [17] was > 100 µM and the TGI [18] was > 100 µM. The TGI [19] was > 100 µM, the TGI [20] was > 100 µM and the TGI [21] was > 100 µM. The TGI [22] was > 100 µM, the TGI [23] was > 100 µM and the TGI [24] was > 100 µM. The TGI [25] was > 100 µM, the TGI [26] was > 100 µM and the TGI [27] was > 100 µM. The TGI [28] was > 100 µM, the TGI [29] was > 100 µM and the TGI [30] was > 100 µM. The TGI [31] was > 100 µM, the TGI [32] was > 100 µM and the TGI [33] was > 100 µM. For the same molecule, the TGI [34] was > 100 µM, the TGI [35] was > 100 µM and the TGI [36] was > 100 µM. For the same molecule, the TGI [37] was > 100 µM, the TGI [38] was > 100 µM and the TGI [39] was > 100 µM. For the same molecule, the TGI [40] was > 100 µM, the TGI [41] was > 100 µM and the TGI [42] was > 100 µM. The TGI [43] was > 100 µM, the TGI [44] was > 100 µM and the TGI [45] was > 100 µM. For the same molecule, the TGI [46] was > 100 µM, the TGI [47] was > 100 µM and the TGI [48] was 77.9 µM. The TGI [49] was > 100 µM, the TGI [50] was > 100 µM and the TGI [51] was > 100 µM.

In the case of COc1cc(C(=O)C/C(CCC(=O)Nc2ccc(Cl)cc2C)=N/NC(=O)C(N)=O)ccc1O, the TGI [1] is reported as > 100 µM, the TGI [2] is reported as > 100 µM and the TGI [52] is reported as > 100 µM. The TGI [53] was > 100 µM, the TGI [3] was > 100 µM and the TGI [4] was > 100 µM. The TGI [5] was > 100 µM, the TGI [54] was > 100 µM and the TGI [6] was > 100 µM. For the same molecule, the TGI [7] was > 100 µM, the TGI [9] was > 100 µM and the TGI [10] was > 100 µM. The TGI [12] was > 100 µM, the TGI [13] was > 100 µM and the TGI [14] was > 100 µM. The TGI [15] was > 100 µM, the TGI [16] was > 100 µM and the TGI [17] was > 100 µM. The TGI [19] was > 100 µM, the TGI [20] was > 100 µM and the TGI [21] was > 100 µM. The TGI [55] was > 100 µM, the TGI [22] was > 100 µM and the TGI [23] was > 100 µM. For the same molecule, the TGI [56] was > 100 µM, the TGI [24] was > 100 µM and the TGI [25] was > 100 µM. The TGI [26] was > 100 µM, the TGI [27] was > 100 µM and the TGI [28] was > 100 µM. The TGI [29] was > 100 µM, the TGI [30] was > 100 µM and the TGI [32] was > 100 µM. For the same molecule, the TGI [33] was > 100 µM, the TGI [34] was > 100 µM and the TGI [35] was > 100 µM. For the same molecule, the TGI [57] was > 100 µM, the TGI [36] was > 100 µM and the TGI [37] was > 100 µM. The TGI [38] was > 100 µM, the TGI [39] was > 100 µM and the TGI [40] was > 100 µM. The TGI [41] was > 100 µM, the TGI [42] was > 100 µM and the TGI [43] was > 100 µM. For the same molecule, the TGI [45] was > 100 µM, the TGI [46] was > 100 µM and the TGI [47] was > 100 µM. For the same molecule, the TGI [48] was > 100 µM, the TGI [49] was > 100 µM and the TGI [50] was > 100 µM. For the same molecule, the TGI [51] was > 100 µM, the TGI [58] was > 100 µM and the TGI [59] was > 100 µM.
